Experimental data reported in US20220160739A1, “METHODS FOR TREATING SUBJECTS WITH CHRONIC KIDNEY DISEASE” (Janssen Pharmaceutica NV, priority 2019, published 2022).

System: patients with type 2 diabetes mellitus (T2DM), Stage 2 or 3 chronic kidney disease (CKD) and macroalbuminuria
Assay: Randomized, double-blind, placebo-controlled study of canagliflozin: safety and tolerability (adverse events)
Type: in vivo
Text: This was a randomized, double-blind, event-driven, placebo-controlled, parallel-group, 2-arm, multicenter study to evaluate the effects of canagliflozin relative to placebo on progression to doubling of serum creatinine, end-stage kidney disease (ESKD), renal or cardiovascular (CV) death in patients with type 2 diabetes mellitus (T2DM), Stage 2 or 3 chronic kidney disease (CKD) and macroalbuminuria, who were receiving standard of care including a maximum tolerated labeled daily dose of an angiotensin-converting enzyme inhibitor (ACEi) or angiotensin receptor blocker (ARB). […] The safety objective was to assess the overall safety and tolerability of canagliflozin. […]
Treatment-emergent safety analyses and summaries were presented using the On-Treatment analysis set (i.e., all treated subjects through 30 days after last dose), whereas analyses of amputation, fracture, and malignancy were performed using the On-Study analysis set (i.e., all treated subjects through end of study).
Safety analyses were performed using either the On-Treatment analysis set (treated subjects up to 30 days of last dose) or the On-Study analysis set (treated subjects through the end of study).

[1] = denominators restricted to females
[2] = renal related AE by preferred term

SMILES: Cc1ccc(C2OC(CO)C(O)C(O)C2O)cc1Cc1ccc(-c2ccc(F)cc2)s1 (centres unmarked) [Canagliflozin]
- Atraumatic lower limb amputation: number of events (On-Study): 87
- Adjudicated fracture: subjects with any event (%) (On-Study, N = 2200): (3.0) %
- Atraumatic lower limb amputation: subjects with any event (%) (On-Study, N = 2200): (3.2) %
- Adverse Events Leading to Discontinuation N (%) (On-Treatment, N = 2200): 267 (12.1)
- Adverse Events Related to Study Drug N (%) (On-Treatment, N = 2200): 469 (21.3)
- Adverse Events Related to Study Drug and Leading to Discontinuation N (%) (On-Treatment, N = 2200): 75 (3.4)
- Any Adverse Events N (%) (On-Treatment, N = 2200): 1784 (81.1)
- Death (fatal adverse event) N (%) (On-Treatment, N = 2200): 109 (5.0)
- Renal related adverse events: total subjects with the AEs (%) (On-Treatment, N = 2200): (13.2) %
- Serious Adverse Events Leading to Discontinuation N (%) (On-Treatment, N = 2200): 134 (6.1)
- Serious Adverse Events N (%) (On-Treatment, N = 2200): 737 (33.5)
- Serious Adverse Events Related to Study Drug N (%) (On-Treatment, N = 2200): 62 (2.8)
- Serious Adverse Events Related to Study Drug and Leading to Discontinuation N (%) (On-Treatment, N = 2200): 16 (0.7)
- Renal related adverse events: incidence rate (Table 8): 57.12 per 1000 person-years
- Overall incidence rate of neoplasms (between the treatment groups): low and balanced between the treatment groups
- Adjudicated diabetic ketoacidosis (DKA) IRD (canagliflozin compared to placebo): 1.73 per 1,000 subject-years
- Adjudicated RCC incidence rate (canagliflozin group): 0.17 per 1000 patient-years
- Adjudicated renal cell carcinoma (RCC): subjects (canagliflozin group): 1 subject
- Adjudicated renal cell carcinoma (RCC): subjects (%) (canagliflozin group): < 0.1%
- Adverse event cited as reason for treatment discontinuation (canagliflozin group): 12%
- Female breast cancer incidence rate (canagliflozin group): 4.08 per 1000 patient-years
- Hyperkalemia adverse events incidence rate (canagliflozin group): 29.74 per 1,000 subject-years
- Renal-related adverse events: incidence rate (canagliflozin group): 57.12 per 1,000 subject-years
- Volume depletion adverse events incidence rate (canagliflozin group): 28.36 per 1,000 subject-years
- Malignancy (Breast) IRD, Canagliflozin vs. Placebo [1]: 2.49 /1000 subject years
- Malignancy (Breast) n (%) [1]: 8 (1.1)
- Malignancy (Breast) rate [1]: 4.08 /1000 subject years
- Adverse Events Leading to Discontinuation rate (exposure adjusted): 52.59 /1000 pt-yrs
- Adverse Events Related to Study Drug and Leading to Discontinuation rate (exposure adjusted): 14.77 /1000 pt-yrs
- Adverse Events Related to Study Drug rate (exposure adjusted): 92.38 /1000 pt-yrs
- Death (fatal adverse event) rate (exposure adjusted): 21.47 /1000 pt-yrs
- Serious Adverse Events Leading to Discontinuation rate (exposure adjusted): 26.39 /1000 pt-yrs
- Serious Adverse Events Related to Study Drug and Leading to Discontinuation rate (exposure adjusted): 3.15 /1000 pt-yrs
- Serious Adverse Events Related to Study Drug rate (exposure adjusted): 12.21 /1000 pt-yrs
- Serious Adverse Events rate (exposure adjusted): 145.17 /1000 pt-yrs
- Any Adverse Events rate (exposure adjusted, On-Treatment): 351.40 /1000 pt-yrs
- Reports of pheochromocytoma or testicular cell cancer (in the study): no reports
- Malignancy (Bladder) IRD, Canagliflozin vs. Placebo (post-randomization): 0.16 /1000 subject years
- Malignancy (Bladder) rate (post-randomization): 1.73 /1000 subject years
- Malignancy (Bladder) n (%) (post-randomization, N = 2200): 10 (0.5)
- Acute kidney injury (%) [2]: (3.9) %
- Acute kidney injury n [2]: 86
- Anuria (%) [2]: (<0.1) %
- Anuria n [2]: 1
- Azotemia n [2]: 0
- Blood Creatinine increased (%) [2]: (6.5) %
- Blood Creatinine increased n [2]: 144
- Blood urea increased (%) [2]: (1.0) %
- Blood urea increased n [2]: 21
- Glomerular filtration rate decreased (%) [2]: (3.1) %
- Glomerular filtration rate decreased n [2]: 68
- Nephropathy toxic n [2]: 0
- Renal failure (%) [2]: (0.5) %
- Renal failure n [2]: 10
- Renal impairment (%) [2]: (2.3) %
- Renal impairment n [2]: 50
